Assays:
[1] = system: THP-1 cells; experiment: THP-1 proliferation assay - 1 (AML); format: cell-based; settings: Homo sapiens, 72h incubation, CellTiter-Glo cell viability, read-out: Target IC50
Protocol: In vitro Assay 2: THP-1 proliferation assay - 1 (AML) 2000 cells/well of THP-1 cells were seeded in RPMI 1640 with Glutamax (Gibco, #11875-093) and 10% fetal calf serum (Biochrom, #S0615) in 384-well plates. The next day, cells were incubated with different concentrations of test compounds for 72h. Cellular viability was analyzed using CellTiter-Glo® Luminescent Cell Viability Assay (Promega, #G7570) according to manufacturer's instructions.

[2] = molecular target: T1, human DHODH (Homo sapiens, UniProt Q02127); experiment: DHODH enzymatic assay - 1 (DCIP bleaching); format: biochemical; settings: 2 nM DHODH, 1 mM dihydroorotate, 0.1 mM decylubiquinone, 0.06 mM DCIP, pH 8.0, 32 degree celsius; read-out: Target IC50
T1 construct: purchased Novus NBP1-98916
T1 sequence (Q02127 whole entry): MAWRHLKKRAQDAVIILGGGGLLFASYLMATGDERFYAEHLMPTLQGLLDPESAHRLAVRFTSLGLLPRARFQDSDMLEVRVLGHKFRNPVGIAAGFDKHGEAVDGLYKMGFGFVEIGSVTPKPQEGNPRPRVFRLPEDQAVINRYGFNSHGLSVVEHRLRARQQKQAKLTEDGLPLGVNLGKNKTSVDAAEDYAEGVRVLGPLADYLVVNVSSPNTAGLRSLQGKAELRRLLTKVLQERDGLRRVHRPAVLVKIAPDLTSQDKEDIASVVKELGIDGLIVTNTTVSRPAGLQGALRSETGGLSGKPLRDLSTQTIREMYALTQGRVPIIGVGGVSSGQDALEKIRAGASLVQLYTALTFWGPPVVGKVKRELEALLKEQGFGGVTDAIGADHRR
Protocol: The assay was conducted in buffer containing 50 mM Tris, 0.1% Triton X-100, 150 mM potassium chloride, 2 nM DHODH, 1 mM dihydroorotate, 0.1 mM decylubiquinone, 0.06 mM DCIP, and 2% DMSO at pH 8.0 at 32 degree celsius. The reaction was initiated by addition of substrates. Enzyme activity was monitored kinetically by the reduction in DCIP absorbance at 600 nm. Purified recombinant human DHODH enzyme was purchased from Novus (cat. no. NBP1-98916). Other chemicals were purchased from Sigma-Aldrich. Absorbance measurements were obtained using a BMG clarion star plate-reading spectrophotometer. Table 1: DHODH enzymatic assay : IC50 values of examples in in vitro assay 1

Work on `CCCCOc1cc(-n2nc(-c3ccccc3Cl)[nH]c2=O)c(F)cc1C(=O)Nc1c(F)cccc1Cl` [Compound I, 2-butoxy-N-(2-chloro-6-fluorophenyl)-4-[3-(2-chlorophenyl)-5-oxo-4,5-dihydro-1H-1,2,4-triazol-1-yl]-5-fluorobenzamide] yielded an IC50 [1] of 0.305 µM and an IC50 [2] of 3 µM.
